Values belong to the molecule of their own block, whether it stands above or below them. Active and inactive are the calls of the source.
Tests used:
[1] = biological target: Glyceraldehyde-3-phosphate dehydrogenase (Homo sapiens, UniProt P04406)
Ephrin type-A receptor 4 = Ephrin type-A receptor 4 (Mus musculus, UniProt Q03137); assay: inhibitors of EphA4 binding to KYL peptide, primary screen, biochemical, colorimetric, mouse EphA4 (AID 689); type: functional
[2] = biological target: T1, Dual specificity protein phosphatase 6 (Rattus norvegicus, UniProt Q64346); assay: MKP-3 phosphatase inhibitors, primary screen, biochemical, rat enzyme, in vitro (AID 425)
T1 sequence (Q64346 whole entry): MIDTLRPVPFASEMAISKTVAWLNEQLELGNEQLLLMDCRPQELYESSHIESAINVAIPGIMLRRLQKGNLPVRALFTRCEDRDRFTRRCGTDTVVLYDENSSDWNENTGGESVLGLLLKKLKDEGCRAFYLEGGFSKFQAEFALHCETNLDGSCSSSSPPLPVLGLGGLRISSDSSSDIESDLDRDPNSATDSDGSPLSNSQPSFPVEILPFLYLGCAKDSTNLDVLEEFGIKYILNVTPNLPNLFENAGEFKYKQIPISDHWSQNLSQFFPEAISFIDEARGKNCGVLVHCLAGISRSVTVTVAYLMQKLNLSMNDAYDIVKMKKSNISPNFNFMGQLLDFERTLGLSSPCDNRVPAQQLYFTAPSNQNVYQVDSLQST

Estrogen receptor = biological target: T2, Estrogen receptor (Homo sapiens, UniProt P03372);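 note: potency for inhibiting coactivator peptide recruitment to the receptor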
T2 sequence (P03372 whole entry): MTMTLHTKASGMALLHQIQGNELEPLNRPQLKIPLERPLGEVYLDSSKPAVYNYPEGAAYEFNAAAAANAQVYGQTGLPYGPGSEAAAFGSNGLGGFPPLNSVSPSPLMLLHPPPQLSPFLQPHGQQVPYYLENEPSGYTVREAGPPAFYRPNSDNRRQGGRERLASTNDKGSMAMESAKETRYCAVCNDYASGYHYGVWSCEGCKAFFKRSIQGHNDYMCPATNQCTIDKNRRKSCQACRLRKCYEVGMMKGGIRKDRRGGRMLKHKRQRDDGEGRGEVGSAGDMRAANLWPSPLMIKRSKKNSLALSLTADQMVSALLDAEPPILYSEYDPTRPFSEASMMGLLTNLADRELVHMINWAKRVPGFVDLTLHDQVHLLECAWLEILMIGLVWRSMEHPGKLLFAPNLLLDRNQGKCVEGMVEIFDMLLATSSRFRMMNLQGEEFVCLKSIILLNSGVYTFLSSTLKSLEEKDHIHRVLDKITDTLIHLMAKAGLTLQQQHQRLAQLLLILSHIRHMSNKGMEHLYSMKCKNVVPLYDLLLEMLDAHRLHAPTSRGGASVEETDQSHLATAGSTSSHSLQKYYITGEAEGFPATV

[3] = biological target: T1, Dual specificity protein phosphatase 6; type: functional
Estrogen receptor beta [4] = biological target: T3, Estrogen receptor beta (Homo sapiens, UniProt Q92731);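 note: recombinant ER-beta bound to coactivator SRC1 peptide in presence of estradiol agonist; inhibitors block coactivator peptide binding and lower the FRET signal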
[5] = biological target: Induced myeloid leukemia cell differentiation protein Mcl-1 (Homo sapiens, UniProt Q07820); type: functional
[6] = biological target: T1, Dual specificity protein phosphatase 6
[7] = biological target: T4, Tyrosine-protein phosphatase non-receptor type 7 (Homo sapiens, UniProt P35236); type: functional
T4 sequence (P35236 whole entry): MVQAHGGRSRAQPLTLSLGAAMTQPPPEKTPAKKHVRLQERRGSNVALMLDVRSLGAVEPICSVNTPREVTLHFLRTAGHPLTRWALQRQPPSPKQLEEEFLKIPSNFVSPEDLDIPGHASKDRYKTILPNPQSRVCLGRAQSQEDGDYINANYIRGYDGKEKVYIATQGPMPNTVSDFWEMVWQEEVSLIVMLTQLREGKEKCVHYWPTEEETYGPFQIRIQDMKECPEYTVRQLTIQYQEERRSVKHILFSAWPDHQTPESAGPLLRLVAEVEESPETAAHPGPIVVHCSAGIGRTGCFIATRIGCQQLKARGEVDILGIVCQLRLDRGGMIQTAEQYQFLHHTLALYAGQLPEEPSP

Bcl-2-like protein 10 = Bcl-2-like protein 10 (Homo sapiens, UniProt Q9HD36); assay: displacers of TR3 peptide from Bcl-B, primary screen, selectivity assay for Bfl-1 inhibitor project, biochemical, fluorescence polarization, FITC-TR3 peptide (AID 748);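 note: fluorescence polarization from a fluorescein-labelled TR3 peptide binding purified Bcl-B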
Estrogen receptor beta [8] = biological target: T3, Estrogen receptor beta; assay: ERβ–SRC-3 coactivator interaction inhibitors, confirmation, orthogonal assay, biochemical, ELISA, streptavidin-HRP readout (AID 1060)
HEK293 [9] = assay: cells; conditions: Homo sapiens
Tumor necrosis factor = Tumor necrosis factor (Homo sapiens, UniProt P01375); assay: TNFa-triggered NF-kB activation inhibitors, SAR follow-up, cell-based, revised (AID 2337); type: functional
HEK293 [10] = assay: NOD2 signaling inhibitors in MDP-stimulated cells, cell-based, uHTS, luminescence (AID 2001); type: functional; conditions: Homo sapiens
HEK293 [11] = assay: cells; type: functional, cell-based; conditions: Homo sapiens
HEK293 [12] = assay: cells; type: functional, cell-based; conditions: Homo sapiens; remark: listed apart in the source
[13] = biological target: Nucleotide-binding oligomerization domain-containing protein 2 (Homo sapiens, UniProt Q9HC29); assay: PubChem AID 2334; type: functional
HEK293 [14] = assay: NOD1 signaling inhibitors, primary screen, cell-based, luminescence, uHTS (AID 1578); type: functional; conditions: Homo sapiens
[15] = biological target: T5, Nucleotide-binding oligomerization domain-containing protein 1 (Homo sapiens, UniProt Q9Y239); assay: NOD1 signaling inhibitors, SAR follow-up, revised (AID 2333); type: functional
T5 sequence (Q9Y239 whole entry): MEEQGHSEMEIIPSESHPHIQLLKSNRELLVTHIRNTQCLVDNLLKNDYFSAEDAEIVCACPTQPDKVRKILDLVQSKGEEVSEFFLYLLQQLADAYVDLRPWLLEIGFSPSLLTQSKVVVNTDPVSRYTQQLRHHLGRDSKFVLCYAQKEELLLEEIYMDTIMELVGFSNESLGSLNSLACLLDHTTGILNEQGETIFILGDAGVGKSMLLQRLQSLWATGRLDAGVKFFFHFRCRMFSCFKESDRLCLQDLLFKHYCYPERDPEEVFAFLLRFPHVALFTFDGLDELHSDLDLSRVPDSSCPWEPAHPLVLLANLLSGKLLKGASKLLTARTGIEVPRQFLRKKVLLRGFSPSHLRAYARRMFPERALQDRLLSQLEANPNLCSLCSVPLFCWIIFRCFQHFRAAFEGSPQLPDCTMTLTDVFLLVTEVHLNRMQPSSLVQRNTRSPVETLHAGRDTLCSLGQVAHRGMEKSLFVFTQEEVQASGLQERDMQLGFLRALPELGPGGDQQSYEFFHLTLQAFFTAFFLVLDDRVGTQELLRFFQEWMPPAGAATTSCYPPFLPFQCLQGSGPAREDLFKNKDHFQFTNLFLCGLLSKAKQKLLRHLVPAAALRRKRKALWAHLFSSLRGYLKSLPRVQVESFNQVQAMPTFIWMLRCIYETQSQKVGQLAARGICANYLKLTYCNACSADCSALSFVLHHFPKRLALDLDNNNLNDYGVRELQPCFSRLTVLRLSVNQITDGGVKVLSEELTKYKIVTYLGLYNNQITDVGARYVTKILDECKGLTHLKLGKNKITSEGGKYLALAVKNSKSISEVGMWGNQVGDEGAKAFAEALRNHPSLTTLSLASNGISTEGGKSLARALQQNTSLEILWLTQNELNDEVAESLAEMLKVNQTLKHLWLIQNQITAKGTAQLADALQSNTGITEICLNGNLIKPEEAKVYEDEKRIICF

[16] = biological target: NACHT, LRR and PYD domains-containing protein 3 (Homo sapiens, UniProt Q96P20); assay: NALP3 inhibitors in yeast, dose response, luminescent (AID 488799); type: functional
[17] = biological target: Multidrug resistance protein CDR1 (Candida albicans, UniProt P43071); assay: CaCDR1 efflux pump inhibitors in yeast, dose response, S. cerevisiae AD1-8u, singleplex, Cherry Pick1 hits (AID 588606); type: functional
[18] = biological target: T6, Voltage-dependent T-type calcium channel subunit alpha-1H (Homo sapiens, UniProt O95180); type: functional
[19] = biological target: T6, Voltage-dependent T-type calcium channel subunit alpha-1H; assay: Inhibitors of T-Type Calcium Channels. [Related pubchem assays (depositor defined):AID449739, AID463087, AID489005, AID493041, AID504579, AID504584, AID504619, AID504628]; type: functional
[20] = biological target: Neuropeptides B/W receptor type 1 (Homo sapiens, UniProt P48145); assay: GPR7 antagonist potency, late-stage follow-up, cell-based, fluorescence, dose response (AID 463251); type: functional
[21] = biological target: Melanin-concentrating hormone receptor 1 (Homo sapiens, UniProt Q99705); assay: Late-stage fluorescence-based counterscreen for antagonists of the G-protein coupled receptor 7 (GPR7): cell-based dose response assay to identify antagonists of the melanin-concentrating hormone receptor 1 (MCHR1). [Related pubchem assays (depositor defined):AID1861, AID1880, AID1952, AID2148, AID2251, AID2257, AID485339]; type: functional;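 note: stimulated with 30 nM MCH peptide agonist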
Melanin-concentrating hormone receptor 1, sequence (Q99705 whole entry): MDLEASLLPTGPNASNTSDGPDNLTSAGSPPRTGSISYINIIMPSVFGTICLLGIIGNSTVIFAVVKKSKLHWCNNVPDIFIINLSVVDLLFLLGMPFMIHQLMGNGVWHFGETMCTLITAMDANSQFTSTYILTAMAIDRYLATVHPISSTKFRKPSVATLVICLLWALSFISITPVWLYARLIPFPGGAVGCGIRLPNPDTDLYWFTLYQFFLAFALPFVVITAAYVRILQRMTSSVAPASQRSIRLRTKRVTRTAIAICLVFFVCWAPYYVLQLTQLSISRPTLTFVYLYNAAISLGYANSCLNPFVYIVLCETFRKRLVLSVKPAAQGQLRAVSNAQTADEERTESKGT

T3 sequence (Q92731 whole entry): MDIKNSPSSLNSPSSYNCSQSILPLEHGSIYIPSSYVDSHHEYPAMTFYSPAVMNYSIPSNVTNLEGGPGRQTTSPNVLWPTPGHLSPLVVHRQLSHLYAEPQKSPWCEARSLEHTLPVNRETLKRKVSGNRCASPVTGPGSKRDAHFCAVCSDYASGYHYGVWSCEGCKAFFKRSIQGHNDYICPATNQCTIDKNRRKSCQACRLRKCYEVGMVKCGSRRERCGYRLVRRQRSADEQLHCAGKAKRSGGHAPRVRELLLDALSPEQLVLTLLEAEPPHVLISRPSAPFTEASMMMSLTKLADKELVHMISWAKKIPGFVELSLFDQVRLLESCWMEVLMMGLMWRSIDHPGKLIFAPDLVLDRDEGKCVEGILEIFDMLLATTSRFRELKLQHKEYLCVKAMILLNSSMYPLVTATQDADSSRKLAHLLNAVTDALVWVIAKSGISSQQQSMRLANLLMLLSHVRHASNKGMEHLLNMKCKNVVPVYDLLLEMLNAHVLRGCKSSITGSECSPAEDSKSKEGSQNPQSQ
T6 sequence (O95180 whole entry): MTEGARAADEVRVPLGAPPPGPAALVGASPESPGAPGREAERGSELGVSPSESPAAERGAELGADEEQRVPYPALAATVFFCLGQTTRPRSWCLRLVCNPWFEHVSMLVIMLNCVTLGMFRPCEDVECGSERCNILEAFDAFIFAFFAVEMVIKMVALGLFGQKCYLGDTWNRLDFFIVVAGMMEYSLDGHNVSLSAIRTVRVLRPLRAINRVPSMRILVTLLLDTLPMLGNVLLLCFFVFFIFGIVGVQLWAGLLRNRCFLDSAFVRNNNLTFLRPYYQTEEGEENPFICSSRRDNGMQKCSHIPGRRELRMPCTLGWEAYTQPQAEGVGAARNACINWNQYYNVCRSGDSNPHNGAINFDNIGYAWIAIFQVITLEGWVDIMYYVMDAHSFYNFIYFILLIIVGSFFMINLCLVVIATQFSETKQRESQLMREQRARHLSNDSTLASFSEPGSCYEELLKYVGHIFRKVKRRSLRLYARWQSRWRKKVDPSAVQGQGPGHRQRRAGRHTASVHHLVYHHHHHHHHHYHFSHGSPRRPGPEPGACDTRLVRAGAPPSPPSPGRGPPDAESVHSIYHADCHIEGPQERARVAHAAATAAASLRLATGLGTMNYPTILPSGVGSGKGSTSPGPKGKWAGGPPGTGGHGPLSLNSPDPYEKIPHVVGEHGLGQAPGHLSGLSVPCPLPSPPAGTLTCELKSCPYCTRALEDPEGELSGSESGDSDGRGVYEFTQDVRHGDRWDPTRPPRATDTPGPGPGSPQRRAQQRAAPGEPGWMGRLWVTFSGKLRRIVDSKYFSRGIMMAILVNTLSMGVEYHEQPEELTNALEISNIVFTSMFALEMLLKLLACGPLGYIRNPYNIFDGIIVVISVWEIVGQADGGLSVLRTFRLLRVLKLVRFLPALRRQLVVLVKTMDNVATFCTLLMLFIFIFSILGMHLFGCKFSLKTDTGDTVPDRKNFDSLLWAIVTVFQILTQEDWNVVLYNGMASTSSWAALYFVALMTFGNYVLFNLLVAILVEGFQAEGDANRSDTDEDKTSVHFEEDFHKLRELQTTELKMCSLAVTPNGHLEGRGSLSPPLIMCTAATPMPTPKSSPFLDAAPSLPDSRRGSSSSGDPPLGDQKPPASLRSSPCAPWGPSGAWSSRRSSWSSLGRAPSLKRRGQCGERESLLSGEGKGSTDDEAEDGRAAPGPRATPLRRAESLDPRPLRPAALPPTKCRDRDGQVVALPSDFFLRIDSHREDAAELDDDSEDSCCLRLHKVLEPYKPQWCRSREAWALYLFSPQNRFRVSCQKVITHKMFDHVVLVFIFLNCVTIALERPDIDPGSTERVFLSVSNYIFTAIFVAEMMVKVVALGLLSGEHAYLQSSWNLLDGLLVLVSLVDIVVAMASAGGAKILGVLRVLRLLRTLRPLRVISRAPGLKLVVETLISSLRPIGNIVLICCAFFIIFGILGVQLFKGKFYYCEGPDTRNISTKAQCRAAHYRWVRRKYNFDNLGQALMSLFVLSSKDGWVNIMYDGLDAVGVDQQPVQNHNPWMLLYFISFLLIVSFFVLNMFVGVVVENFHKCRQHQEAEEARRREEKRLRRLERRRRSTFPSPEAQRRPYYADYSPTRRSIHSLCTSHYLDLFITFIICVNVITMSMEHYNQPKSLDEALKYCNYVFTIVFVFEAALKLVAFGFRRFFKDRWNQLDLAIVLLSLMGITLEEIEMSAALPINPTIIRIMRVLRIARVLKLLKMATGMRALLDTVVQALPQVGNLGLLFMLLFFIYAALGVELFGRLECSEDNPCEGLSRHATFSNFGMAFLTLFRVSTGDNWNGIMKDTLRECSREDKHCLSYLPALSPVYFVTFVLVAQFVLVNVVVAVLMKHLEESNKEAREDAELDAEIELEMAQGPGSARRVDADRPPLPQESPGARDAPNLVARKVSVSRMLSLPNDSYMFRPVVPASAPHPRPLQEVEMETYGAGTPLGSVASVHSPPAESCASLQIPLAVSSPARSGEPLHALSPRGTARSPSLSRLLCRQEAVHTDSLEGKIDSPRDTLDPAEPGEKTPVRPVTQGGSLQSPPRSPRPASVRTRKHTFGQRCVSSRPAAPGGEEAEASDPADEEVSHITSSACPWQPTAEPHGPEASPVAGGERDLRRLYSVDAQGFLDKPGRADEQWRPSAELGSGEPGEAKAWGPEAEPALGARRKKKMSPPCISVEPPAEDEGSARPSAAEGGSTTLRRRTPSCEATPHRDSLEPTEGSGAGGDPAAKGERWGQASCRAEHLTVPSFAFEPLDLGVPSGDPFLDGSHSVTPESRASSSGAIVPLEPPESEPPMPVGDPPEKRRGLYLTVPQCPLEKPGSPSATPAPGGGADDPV
Glyceraldehyde-3-phosphate dehydrogenase, sequence (P04406 whole entry): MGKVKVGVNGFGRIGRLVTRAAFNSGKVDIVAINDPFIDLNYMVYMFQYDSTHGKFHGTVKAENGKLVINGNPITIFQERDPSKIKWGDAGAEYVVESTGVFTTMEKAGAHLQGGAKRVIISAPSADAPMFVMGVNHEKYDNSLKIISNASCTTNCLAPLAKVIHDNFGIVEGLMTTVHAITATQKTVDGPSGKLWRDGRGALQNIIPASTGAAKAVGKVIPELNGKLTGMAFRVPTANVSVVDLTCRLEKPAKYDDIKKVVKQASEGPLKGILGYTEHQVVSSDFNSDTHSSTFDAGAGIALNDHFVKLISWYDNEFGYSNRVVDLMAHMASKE
Tumor necrosis factor, sequence (P01375 whole entry): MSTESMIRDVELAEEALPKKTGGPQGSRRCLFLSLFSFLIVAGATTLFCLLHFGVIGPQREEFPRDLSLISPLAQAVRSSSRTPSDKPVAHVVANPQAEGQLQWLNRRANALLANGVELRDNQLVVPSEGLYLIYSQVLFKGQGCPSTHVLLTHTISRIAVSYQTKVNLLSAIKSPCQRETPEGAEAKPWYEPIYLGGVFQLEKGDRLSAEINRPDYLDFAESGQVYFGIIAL
Induced myeloid leukemia cell differentiation protein Mcl-1, sequence (Q07820 whole entry): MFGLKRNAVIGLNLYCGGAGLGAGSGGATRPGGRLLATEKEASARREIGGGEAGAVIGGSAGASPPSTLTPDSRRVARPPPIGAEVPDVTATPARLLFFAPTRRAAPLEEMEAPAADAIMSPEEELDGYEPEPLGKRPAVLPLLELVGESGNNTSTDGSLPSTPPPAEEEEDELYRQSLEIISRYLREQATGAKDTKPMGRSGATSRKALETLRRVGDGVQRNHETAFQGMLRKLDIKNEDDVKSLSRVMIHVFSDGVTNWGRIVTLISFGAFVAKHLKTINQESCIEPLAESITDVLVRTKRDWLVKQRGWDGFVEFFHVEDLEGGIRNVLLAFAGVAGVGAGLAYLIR
Neuropeptides B/W receptor type 1, sequence (P48145 whole entry): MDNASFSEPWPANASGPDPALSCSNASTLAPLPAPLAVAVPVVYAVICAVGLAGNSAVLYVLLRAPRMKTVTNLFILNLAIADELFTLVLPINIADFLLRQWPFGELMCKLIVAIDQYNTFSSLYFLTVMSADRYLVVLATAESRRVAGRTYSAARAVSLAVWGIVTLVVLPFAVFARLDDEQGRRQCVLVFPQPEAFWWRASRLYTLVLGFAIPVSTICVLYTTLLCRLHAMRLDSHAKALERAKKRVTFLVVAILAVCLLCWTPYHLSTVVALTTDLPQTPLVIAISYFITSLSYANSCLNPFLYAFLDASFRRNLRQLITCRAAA
Bcl-2-like protein 10, sequence (Q9HD36 whole entry): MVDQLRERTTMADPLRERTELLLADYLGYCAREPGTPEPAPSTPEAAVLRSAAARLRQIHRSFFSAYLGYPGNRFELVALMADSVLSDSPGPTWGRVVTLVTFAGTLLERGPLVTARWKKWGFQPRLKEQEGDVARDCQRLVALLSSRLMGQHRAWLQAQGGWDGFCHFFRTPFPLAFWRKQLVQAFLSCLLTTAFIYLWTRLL

IC50 [1]: > 100 µM (not active)
IC50 (Ephrin type-A receptor 4): 9.05 µM (active)
IC50 [2]: > 10 µM (not active)
IC50 (Estrogen receptor): 12 µM (active)
IC50 [3]: > 100 µM (inactive)
IC50 (Estrogen receptor beta [4]): 2.15 µM (active)
IC50 [5]: 4.43 µM (active)
IC50 [6]: > 100 µM (inactive)
IC50 [7]: > 100 µM (not active)
IC50 (Bcl-2-like protein 10): 4.06 µM (active)
IC50 (Estrogen receptor beta [8]): 0.704 µM (not active)
SMILES: COc1ccc(N2Cc3cccc(C(=O)O)c3C2=O)cc1

SMILES: CC1CCc2c(sc(NC(=O)c3cccs3)c2C(=O)O)C1 (stereo not given)
IC50 (HEK293 [9]): > 20 µM (inactive)
IC50 (Tumor necrosis factor): > 20 µM (inactive)
IC50 (HEK293 [10]): > 20 µM (inactive)
IC50 (HEK293 [11]): > 20 µM (inactive)
IC50 (HEK293 [12]): > 20 µM (inactive)
IC50 [13]: > 20 µM (inactive)
EC50 (HEK293 [14]): > 20 µM (inactive)
IC50 [15]: > 20 µM (inactive)

SMILES: CCC1Nc2ncnc(N3CCN(c4ccccn4)CC3)c2N(Cc2ccc(Br)cc2)C1=O (stereo not given)
IC50 [16]: 3.71 µM (active)
EC50 [17]: 12.4 µM (active)

EC50 [18]: 1.05 µM (active)
EC50 [19]: 0.808 µM (active)
SMILES: O=C(Nc1ccccc1)c1ccccc1NS(=O)(=O)c1ccc(Cl)s1

IC50 [20]: 1.6 µM (active)
IC50 [21]: 3.5 µM (active)
SMILES: CC(=O)OCc1ccc(Oc2c(Cl)cnn(-c3ccc(C(C)C)cc3)c2=O)cc1
